For this test, the target named is T1, PPARγ (Homo sapiens, UniProt P37231).
T1 construct: gene PPARG
T1 sequence (P37231 231-505 limits assumed): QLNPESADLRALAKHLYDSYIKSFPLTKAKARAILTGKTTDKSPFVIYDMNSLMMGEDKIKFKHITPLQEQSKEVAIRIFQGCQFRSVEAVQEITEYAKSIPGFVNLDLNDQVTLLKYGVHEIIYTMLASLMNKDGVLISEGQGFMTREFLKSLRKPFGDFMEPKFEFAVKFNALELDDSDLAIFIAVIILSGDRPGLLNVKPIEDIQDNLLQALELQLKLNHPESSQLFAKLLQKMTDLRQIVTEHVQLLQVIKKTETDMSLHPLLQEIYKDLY
Briefly: LanthaScreen TR-FRET competitive binding assay. For orientation: Time-resolved FRET reads energy transfer from a long-lived donor to a nearby acceptor.

`C=C(C)[C@@H]1Cc2c(ccc(-c3coc4cc(O)ccc4c3=O)c2O)O1` [compound 17, 7, 2′-Dihydroxy-2′′ S-isopropenyl dihydrofuran [6′′, 7′′ : 3′, 4′]-isoflavone] returned a Ki of 1.57 µM.

For orientation: Ki means the dissociation constant of the complex between target and ligand, obtained from inhibition or displacement. A high value points to weaker binding.
